Key:
Format in all cases: in vivo
[1] = system: Lolium multiflorum; experiment: Greenhouse trial, post-emergence herbicidal action, visual scoring; conditions: 672 h, approx. 4 weeks after application
Protocol: (§1) The seeds of typical harmful plants and of typical cereal plants were sown, allowed to emerge and grown under greenhouse conditions. Treatment with the compositions according to the invention was carried out after emergence of the harmful plants generally at the 2- to 4-leaf stage at various dosages using a water application rate of 300 l/ha (converted).
(§2) After the treatment (approx. 4 weeks after application), the herbidical activity of the active compounds or active compound mixtures was scored visually by comparing the treated plots with untreated control plots. Damage and development of all above-ground parts of the plants was recorded. Scoring was done on a percentage scale (100% activity=all plants dead; 50% activity=50% of the plants and green plant parts dead; 0% activity=no discernible activity=like control plot).
(§3) The results are listed in the tables below, where the activity measured for the independent use of the active compounds A) and B) is stated in brackets and g of AS/ha means gram of active substance per hectare.

[2] = system: Alopecurus myosuroidis; experiment: as above; conditions: 672 h, approx. 4 weeks after application
Protocol: as §1, §2, §3

[3] = system: Wheat; experiment: Greenhouse trial, post-emergence crop damage, visual scoring; conditions: approx. 4 weeks after application
Protocol: as §1, §2, §3

Fc1ccc([C@]2(Cn3cncn3)O[C@H]2c2ccccc2Cl)cc1 (racemic) [epoxiconazole]
0%: inhibition at 125 g/ha ([1]; 125 g of AS/ha) | inhibition at 250 g/ha ([1]; 250 g of AS/ha) | inhibition at 125 g/ha ([2]; 125 g of AS/ha) | inhibition at 250 g/ha ([2]; 250 g of AS/ha) | Wheat % damage ([3]; 125 g of AS/ha) | Wheat % damage ([3]; 250 g of AS/ha)

From US8318637B2, “Herbicide/azole combination” (Bayer Cropscience AG, priority 2007, dated 2012)
